Assay results as given in patent US10130830B2, “Preservative systems comprising cationic surfactants” (Laboratorios Miret, S.A., priority 2005, dated 2018).
“And” between values parts separate entries of the source, which are not always exact repeats. Equal values may be shown once.

Columns and labels:
aerobic total count [1] = assay: Preservative action in cooked chicken breast, aerobic total count; type: cell-based; conditions: for counts (aerobic total count): for 5 weeks
Procedure: (2) Determination of Preservative Action in Chicken Breast. Process of Preparation • 1. Fresh chicken breast was diced to pieces • 2. Brine (8.70% sodium chloride and 4.35% tripolyphosphate in water) was added to the fresh chicken in an amount of 11.5 g brine per 88.5 g meat in the control preparation and 11.5 g brine and 88.4 g meat in the preparations treated with preservative. • 3. Brine and meat were mixed during 15 minutes, in the preparations treated with preservative the preservative was added after 14 minutes in an amount of 0.2 g/kg. • 4. Vacuum refrigerate tumbling was made during 30 minutes. • 5. Samples were vacuum-packed in sterile bags and they were cooked at 85° C. for 30 minutes. • 6. The cooked chicken was refrigerated at 4° C. • 7. The cooked chicken was diced in irregular shapes. • 8. Then, the nuggets were stored at 10° C. in sterile vacuum-packed bags. Analysis […] Dilutions were made in buffered peptone water. Tryptone Soya Agar was harvested with each dilution and incubated at 35° C. for 48 hours. The mean value in log cfu/g of three samples per treatment and day of analysis was calculated.

aerobic total count [2] = assay: Preservative action in soaked chickpeas, aerobic total count; type: cell-based; conditions: Example 13, soaked chickpeas, LAE 0.2 g/kg in soaking water, mean of triplicate
Procedure: (4) Determination of Preservative Action in Soaked Chick-peas.
Chickpeas are the principal ingredients in a lot of ready-to-eat meals. Before cooking them, chickpeas have to be soaked in water at room temperature for 24 hours. During this period, fermentation processes may occur and therefore, chickpeas would not be suitable for eating. The soaking process cannot be made at refrigeration temperatures, because the structure of the chickpeas could be damaged.
• 1. Chickpeas were soaked in water for 24 hours at 30° C. and 50% HR (in treated samples preservative was added at this point); and • 2. after 24 hours the chickpeas were strained. Analysis • Samples were analysed (aerobic total count and concentration of the cationic surfactant) by triplicate for 24 hours. • Aerobic total count was analysed by stomaching 25 g of chickpeas in 225 g of buffered peptone water. Dilutions were made in buffered peptone water. Tryptone Soya Agar was harvested with each dilution and incubated at 35° C. for 48 hours. • Average values in log cfu/g of three samples per treatment and day of analysis were calculated. • LAE was analysed by HPLC using an internally validated method.

Yeast = assay: Preservative action in cosmetic products (Antimicrobial Effectiveness Testing USP 24th Edition), yeast; type: cell-based, Candida albicans
Description: (1) Determination of Preservative Action in Cosmetic Products. […] This assay consists of the contamination of the protecting formulations with an inoculum mixture of 10^8 cfu/ml concentration, for each of the micro-organisms, and the determination of the number of viable cells in time. This inoculum mixture is composed of the following microorganisms: [table] The cosmetic composition to be analysed is divided into sterile containers with 50 g of product for each flask. Each container is inoculated with 0.5 ml of inoculum (10^8 cfu/ml). The target concentration is 10^6 cfu/ml, approximately. All the containers are kept at a temperature between 20-25° C. and are protected from light. The level of the microbial contamination is checked at 0 hours, 7 days, 14 days and 28 days. The number of colonies is evaluated by dilution in buffer peptone with the appropriate neutraliser agent of the preservative. The culture media used for counting the microorganisms are: […] (2) Determination of Preservative Action in Chicken Breast. Process of Preparation • 1. Fresh chicken breast was diced to pieces • 2. Brine (8.70% sodium chloride and 4.35% tripolyphosphate in water) was added to the fresh chicken in an amount of 11.5 g brine per 88.5 g meat in the control preparation and 11.5 g brine and 88.4 g meat in the preparations treated with preservative. • 3. Brine and meat were mixed during 15 minutes, in the preparations treated with preservative the preservative was added after 14 minutes in an amount of 0.2 g/kg. • 4. Vacuum refrigerate tumbling was made during 30 minutes. • 5. Samples were vacuum-packed in sterile bags and they were cooked at 85° C. for 30 minutes. • 6. The cooked chicken was refrigerated at 4° C. • 7. The cooked chicken was diced in irregular shapes. • 8. Then, the nuggets were stored at 10° C. in sterile vacuum-packed bags. Analysis

## CCCCCCCCCCCC(=O)N[C@@H](CCCN=C(N)N)C(=O)OCC.Cl [LAE, ethyl ester of the lauramide of the arginine monohydrochloride]
Aerobic total count [1]; Example 9, cooked chicken, 0.2 g/kg, day 0, mean of triplicate
  aerobic total count, mean: 2.0 log cfu/g
Aerobic total count [1]; Example 9, cooked chicken, 0.2 g/kg, day 0, samples 1-3
  aerobic total count: 2.0 log cfu/g
Aerobic total count [1]; Example 9, cooked chicken, 0.2 g/kg, day 7, mean of triplicate
  aerobic total count, mean: 2.0 log cfu/g
Aerobic total count [1]; Example 9, cooked chicken, 0.2 g/kg, day 7, samples 1-3
  aerobic total count: 2.0 log cfu/g
Aerobic total count [1]; Example 9, cooked chicken, 0.2 g/kg, day 14, mean of triplicate
  aerobic total count, mean: 2.3 log cfu/g
Aerobic total count [1]; Example 9, cooked chicken, 0.2 g/kg, day 14, samples 1-3, monohydrochloride
  aerobic total count: 2.0 log cfu/g and 2.5 log cfu/g and 2.3 log cfu/g
Aerobic total count [1]; Example 9, cooked chicken, 0.2 g/kg, day 21, mean of triplicate
  aerobic total count, mean: 2.8 log cfu/g
Aerobic total count [1]; Example 9, cooked chicken, 0.2 g/kg, day 21, samples 1-3, monohydrochloride
  aerobic total count: 3.0 log cfu/g and 2.8 log cfu/g and 2.6 log cfu/g
Aerobic total count [1]; Example 9, cooked chicken, 0.2 g/kg, day 28, mean of triplicate
  aerobic total count, mean: 3.3 log cfu/g
Aerobic total count [1]; Example 9, cooked chicken, 0.2 g/kg, day 28, samples 1-3
  aerobic total count: 3.1 log cfu/g
Aerobic total count [1]; Example 9, cooked chicken, 0.2 g/kg, day 28, samples 1-3, monohydrochloride
  aerobic total count: 3.2 log cfu/g and 3.5 log cfu/g
Aerobic total count [1]; Example 9, cooked chicken, 0.2 g/kg, day 35, mean of triplicate
  aerobic total count, mean: 3.6 log cfu/g
Aerobic total count [1]; Example 9, cooked chicken, 0.2 g/kg, day 35, samples 1-3
  aerobic total count: 3.6 log cfu/g
Aerobic total count [1]; Example 9, cooked chicken, 0.2 g/kg, day 35, samples 1-3, monohydrochloride
  aerobic total count: 3.8 log cfu/g and 3.3 log cfu/g
Aerobic total count [1]; Example 9, cooked chicken, 0.2 g/kg, day 42, mean of triplicate
  aerobic total count, mean: 4.1 log cfu/g
Aerobic total count [1]; Example 9, cooked chicken, 0.2 g/kg, day 42, samples 1-3, monohydrochloride
  aerobic total count: 4.0 log cfu/g and 4.3 log cfu/g and 4.1 log cfu/g
Aerobic total count [1]; Example 9, cooked chicken, 0.2 g/kg, day 49, mean of triplicate
  aerobic total count, mean: 5.0 log cfu/g
Aerobic total count [1]; Example 9, cooked chicken, 0.2 g/kg, day 49, samples 1-3, monohydrochloride
  aerobic total count: 5.1 log cfu/g and 4.7 log cfu/g and 5.2 log cfu/g
Aerobic total count [1]; Example 9, cooked chicken, 0.2 g/kg, day 56 (8 weeks), mean of triplicate
  aerobic total count, mean: 5.4 log cfu/g
Aerobic total count [1]; Example 9, cooked chicken, 0.2 g/kg, day 56, samples 1-3, monohydrochloride
  aerobic total count: 5.3 log cfu/g and 5.2 log cfu/g and 5.5 log cfu/g
Aerobic total count [1]; Example 9, cooked chicken, 0.2 g/kg
  counts (aerobic total count): below 4.0 log cfu/g
Aerobic total count [1]; Example 14, cooked chicken, LAE 0.2 g/kg, day 0, mean of triplicate
  aerobic total count, mean: 2.0 log cfu/g
Aerobic total count [1]; Example 14, cooked chicken, LAE 0.2 g/kg, day 7, mean of triplicate
  aerobic total count, mean: 2.0 log cfu/g
Aerobic total count [1]; Example 14, cooked chicken, LAE 0.2 g/kg, day 7, samples 1-3
  aerobic total count: 2.0 log cfu/g
Aerobic total count [1]; Example 14, cooked chicken, LAE 0.2 g/kg, day 14, mean of triplicate
  aerobic total count, mean: 2.3 log cfu/g
Aerobic total count [1]; Example 14, cooked chicken, LAE 0.2 g/kg, day 14, samples 1-3, monohydrochloride
  aerobic total count: 2.2 log cfu/g and 2.6 log cfu/g
Aerobic total count [1]; Example 14, cooked chicken, LAE 0.2 g/kg, day 21, mean of triplicate
  aerobic total count, mean: 2.9 log cfu/g
Aerobic total count [1]; Example 14, cooked chicken, LAE 0.2 g/kg, day 21, samples 1-3, monohydrochloride
  aerobic total count: 3.0 log cfu/g and 2.8 log cfu/g
Aerobic total count [1]; Example 14, cooked chicken, LAE 0.2 g/kg, day 28, mean of triplicate
  aerobic total count, mean: 3.4 log cfu/g
Aerobic total count [1]; Example 14, cooked chicken, LAE 0.2 g/kg, day 28, samples 1-3
  aerobic total count: 3.4 log cfu/g
Aerobic total count [1]; Example 14, cooked chicken, LAE 0.2 g/kg, day 28, samples 1-3, monohydrochloride
  aerobic total count: 3.2 log cfu/g and 3.5 log cfu/g
Aerobic total count [1]; Example 14, cooked chicken, LAE 0.2 g/kg, day 35, mean of triplicate
  aerobic total count, mean: 3.8 log cfu/g
Aerobic total count [1]; Example 14, cooked chicken, LAE 0.2 g/kg, day 35, samples 1-3, monohydrochloride
  aerobic total count: 3.6 log cfu/g and 3.8 log cfu/g and 3.9 log cfu/g
Aerobic total count [1]; Example 14, cooked chicken, LAE 0.2 g/kg, day 42, mean of triplicate
  aerobic total count, mean: 4.0 log cfu/g
Aerobic total count [1]; Example 14, cooked chicken, LAE 0.2 g/kg, day 42, samples 1-3, monohydrochloride
  aerobic total count: 4.0 log cfu/g and 4.1 log cfu/g
Aerobic total count [1]; Example 14, cooked chicken, LAE 0.2 g/kg, day 49, mean of triplicate
  aerobic total count, mean: 5.1 log cfu/g
Aerobic total count [1]; Example 14, cooked chicken, LAE 0.2 g/kg, day 49, samples 1-3, monohydrochloride
  aerobic total count: 5.3 log cfu/g and 4.9 log cfu/g and 5.0 log cfu/g
Aerobic total count [1]; Example 14, cooked chicken, LAE 0.2 g/kg, day 56 (8 weeks), mean of triplicate
  aerobic total count, mean: 5.6 log cfu/g
Aerobic total count [1]; Example 14, cooked chicken, LAE 0.2 g/kg, day 56, samples 1-3, monohydrochloride
  aerobic total count: 5.2 log cfu/g
Aerobic total count [1]; Example 14, cooked chicken, LAE 0.2 g/kg
  counts (aerobic total count): below 4.0 log cfu/g
Aerobic total count [1]; Example 16, cooked chicken, 0.20 g of LAE/kg, day 0, mean of triplicate
  aerobic total count, mean: 2.0 log cfu/g
Aerobic total count [1]; Example 16, cooked chicken, 0.20 g of LAE/kg, day 7, mean of triplicate
  aerobic total count, mean: 2.0 log cfu/g
Aerobic total count [1]; Example 16, cooked chicken, 0.20 g of LAE/kg, day 14, mean of triplicate
  aerobic total count, mean: 2.2 log cfu/g
Aerobic total count [1]; Example 16, cooked chicken, 0.20 g of LAE/kg, day 21, mean of triplicate
  aerobic total count, mean: 2.8 log cfu/g
Aerobic total count [1]; Example 16, cooked chicken, 0.20 g of LAE/kg, day 28, mean of triplicate
  aerobic total count, mean: 3.2 log cfu/g
Aerobic total count [1]; Example 16, cooked chicken, 0.20 g of LAE/kg, day 35, mean of triplicate
  aerobic total count, mean: 3.6 log cfu/g
Aerobic total count [1]; Example 16, cooked chicken, 0.20 g of LAE/kg, day 42, mean of triplicate
  aerobic total count, mean: 4.3 log cfu/g
Aerobic total count [1]; Example 16, cooked chicken, 0.20 g of LAE/kg, day 49, mean of triplicate
  aerobic total count, mean: 4.9 log cfu/g
Aerobic total count [1]; Example 16, cooked chicken, 0.20 g of LAE/kg, day 56 (8 weeks), mean of triplicate
  aerobic total count, mean: 5.5 log cfu/g
Aerobic total count [1]; Example 16, cooked chicken, LAE 0.2 g/kg
  counts (aerobic total count): below 4.0 log cfu/g
Aerobic total count [1]; Example 18, cooked chicken, 0.2 g of LAE/kg, day 0, mean of triplicate
  aerobic total count, mean: 2.0 log cfu/g
Aerobic total count [1]; Example 18, cooked chicken, 0.2 g of LAE/kg, day 7, mean of triplicate
  aerobic total count, mean: 2.0 log cfu/g
Aerobic total count [1]; Example 18, cooked chicken, 0.2 g of LAE/kg, day 14, mean of triplicate
  aerobic total count, mean: 2.4 log cfu/g
Aerobic total count [1]; Example 18, cooked chicken, 0.2 g of LAE/kg, day 21, mean of triplicate
  aerobic total count, mean: 2.9 log cfu/g
Aerobic total count [1]; Example 18, cooked chicken, 0.2 g of LAE/kg, day 28, mean of triplicate
  aerobic total count, mean: 3.4 log cfu/g
Aerobic total count [1]; Example 18, cooked chicken, 0.2 g of LAE/kg, day 35, mean of triplicate
  aerobic total count, mean: 3.7 log cfu/g
Aerobic total count [1]; Example 18, cooked chicken, 0.2 g of LAE/kg, day 42, mean of triplicate
  aerobic total count, mean: 4.1 log cfu/g
Aerobic total count [1]; Example 18, cooked chicken, 0.2 g of LAE/kg, day 49, mean of triplicate
  aerobic total count, mean: 5.2 log cfu/g
Aerobic total count [1]; Example 18, cooked chicken, 0.2 g of LAE/kg, day 56 (8 weeks), mean of triplicate
  aerobic total count, mean: 5.7 log cfu/g
Aerobic total count [1]; Example 18, cooked chicken, LAE 0.2 g/kg
  counts (aerobic total count): below 4.0 log cfu/g
Aerobic total count [2]; 0 hours
  aerobic total count, mean: 2.0 log cfu/g
Aerobic total count [2]; 4 hours
  aerobic total count, mean: 2.0 log cfu/g
Aerobic total count [2]; 8 hours
  aerobic total count, mean: 2.5 log cfu/g
Aerobic total count [2]; 16 hours
  aerobic total count, mean: 3.8 log cfu/g
Yeast; Example 10, oil in water emulsion with non-ionic surfactant, 0.2 g/kg, 0 days
  Yeast count: 5.6 log cfu/g
Yeast; Example 10, oil in water emulsion with non-ionic surfactant, 0.2 g/kg, 7 days
  Yeast count: 3.4 log cfu/g
Yeast; Example 10, oil in water emulsion with non-ionic surfactant, 0.2 g/kg, 14 days
  Yeast count: 2.6 log cfu/g
Yeast; Example 12, bath gel, LAE 0.2 g/kg, 0 days
  Yeast count: 4.3 log cfu/g
Yeast; Example 12, bath gel, LAE 0.2 g/kg, 7 days
  Yeast count: 2.8 log cfu/g
Yeast; Example 12, bath gel, LAE 0.2 g/kg, 14 days
  Yeast count: <2.0 log cfu/g
Yeast; Example 15, bath gel, LAE 0.2 g/kg, 0 days
  Yeast count: 4.3 log cfu/g
Yeast; Example 15, bath gel, LAE 0.2 g/kg, 7 days
  Yeast count: 3.3 log cfu/g
Yeast; Example 15, bath gel, LAE 0.2 g/kg, 14 days
  Yeast count: 2.6 log cfu/g
Yeast; Example 17, oil in water emulsion with an ionic emulsifier, 0.20 g of LAE/kg, 0 days
  Yeast count: 5.3 log cfu/g
Yeast; Example 17, oil in water emulsion with an ionic emulsifier, 0.20 g of LAE/kg, 7 days
  Yeast count: 3.8 log cfu/g
Yeast; Example 17, oil in water emulsion with an ionic emulsifier, 0.20 g of LAE/kg, 14 days
  Yeast count: 2.5 log cfu/g
Yeast; Example 19, bath gel, 0.2 g of LAE/kg, 0 days
  Yeast count: 4.5 log cfu/g
Yeast; Example 19, bath gel, 0.2 g of LAE/kg, 7 days
  Yeast count: 3.5 log cfu/g
Yeast; Example 19, bath gel, 0.2 g of LAE/kg, 14 days
  Yeast count: 2.3 log cfu/g
